Values of other authors in patent US20150056314A1, “EXTRACTION METHOD FOR USE IN EXTRACTING BENEFICIAL COMPOUNDS FROM COFFEE BEANS” (Applied Food Sciences, Inc., priority 2003, published 2015).

Columns and labels:
[1] = system: methylazoxymethanol-induced large intestinal tumors; conditions: hamster models
rat stomach cancer = conditions: rat (Shimizu et al J Toxicol Sci 1999)

O=C(/C=C/c1ccc(O)c(O)c1)O[C@@H]1C[C@](O)(C(=O)O)C[C@@H](O)[C@H]1O [chlorogenic acid]
inhibition of methylazoxymethanol-induced large intestinal tumors [1]: inhibit | effect on rat stomach cancer (rat stomach cancer): chemopreventative effect
